Reference: patent publication US20180292376A1, “DIFFUSION CELL TESTING METHODS CONTAINING BIPHASIC RECEPTOR FLUIDS” (BUFFERAD Illinois Inc. d/b/a Zyleris PharmaTech, Inc., priority 2017, published 2018)
“And” between values parts separate entries of the source, which are not always exact repeats. Identical values can stand only once.

Experiment: In vitro release testing (IVRT), static vertical diffusion cell, synthetic membrane, UV-VIS analysis
Type: physicochemical
Details: for amount of xylene cyanol released into the water phase / release of Xylene Cyanol into the receptor fluid: ointment
Method: In Vitro Release Testing Method.
Release of pharmaceutically active compounds from semi-solid dosage forms was evaluated in an in vitro model of static vertical diffusion cell using a synthetic membrane model. […] The samples were analyzed using a UV-VIS spectrometer. […]
Test time points: 0, 2, 4, 6, 8, and 10 hours. Each test was conducted in four replicates (N=4). Square root of test time points: 0, 1.41, 2.00, 2.45, 2.83, and 3.16.
Membrane: Polypropylene (pore size: 0.45 micron).
Static vertical diffusion cell parameters: Area of the membrane diffusion area: 0.95 square centimeters.
Dosing level: infinite dose at about 3.0 milliliter of the semi-solid dosage form.
Static vertical diffusion cell consists of a donor and receptor compartment separated by a synthetic membrane. The dosing compartment was for the dosed semi-solid dosage form. […] Before dosing, the diffusion cell was pre-incubated at 32° C. for about 20 to 45 minutes. The t=0 samples were taken after the incubation period prior to dosing.
During the experiment, the receptor fluid was in intimate contact with the membrane through a mixing mechanism, such as, e.g., magnetic stirring bar, or orbit shaker, and maintained at 32° C. using a heating mechanism, such as, e.g., dry heat block, or circulating water bath. At each time point, entire content of the receptor fluid was collected and replaced with a fresh batch pre-incubated at 32° C.
An ointment dosage form was prepared as an example of the semi-solid dosage form. Petrolatum was heated to about 50 to 70° C. while mixing. Xylene Cyanol was added to the heated petrolatum while heating and mixing. The mixture was mixed until uniform. Then, the mixture was slowly cooled to room temperature while mixing to yield the ointment formulation.

## CCN=C1C=CC(=C(c2ccc(NCC)c(C)c2)c2ccc(S(=O)(=O)[O-])cc2S(=O)(=O)O)C=C1C.[Na+] [Xylene Cyanol]
0.5% Xylene Cyanol in Petrolatum, infinite dose, biphasic receptor fluid: 1-Octanol:H2O 1:1 v:v, square root of time (hr) 0.00 (0 h, prior to dosing)
  amount of xylene cyanol released: 0.0000 mcg/cm2
0.5% Xylene Cyanol in Petrolatum, infinite dose, biphasic receptor fluid: 1-Octanol:H2O 1:1 v:v, square root of time (hr) 2.00 (4 h)
  amount of xylene cyanol released: 1.2143 mcg/cm2 and 1.9575 mcg/cm2 and 1.4206 mcg/cm2 and 1.4438 mcg/cm2
0.5% Xylene Cyanol in Petrolatum, infinite dose, biphasic receptor fluid: 1-Octanol:H2O 1:1 v:v, square root of time (hr) 2.45 (6 h)
  amount of xylene cyanol released: 2.2025 mcg/cm2 and 3.0973 mcg/cm2 and 2.5204 mcg/cm2 and 2.5436 mcg/cm2
0.5% Xylene Cyanol in Petrolatum, infinite dose, biphasic receptor fluid: 1-Octanol:H2O 1:1 v:v, square root of time (hr) 2.83 (8 h)
  amount of xylene cyanol released: 3.1044 mcg/cm2 and 4.1192 mcg/cm2 and 3.3865 mcg/cm2 and 3.7213 mcg/cm2
0.5% Xylene Cyanol in Petrolatum, infinite dose, biphasic receptor fluid: 1-Octanol:H2O 1:1 v:v, square root of time (hr) 3.16 (10 h)
  amount of xylene cyanol released: 3.8674 mcg/cm2 and 4.8589 mcg/cm2 and 4.2884 mcg/cm2 and 4.5853 mcg/cm2
0.5% Xylene Cyanol in Petrolatum, infinite dose, biphasic receptor fluid: 1-Octanol:PBS Buffer pH 7.4 1:1 v:v, square root of time 0.00 (0 h, prior to dosing)
  amount of xylene cyanol released: 0.0000 mcg/cm2
0.5% Xylene Cyanol in Petrolatum, infinite dose, biphasic receptor fluid: 1-Octanol:PBS Buffer pH 7.4 1:1 v:v, square root of time 2.00 (4 h)
  amount of xylene cyanol released: 0.3389 mcg/cm2 and 0.4105 mcg/cm2 and 0.5179 mcg/cm2 and 0.4295 mcg/cm2
0.5% Xylene Cyanol in Petrolatum, infinite dose, biphasic receptor fluid: 1-Octanol:PBS Buffer pH 7.4 1:1 v:v, square root of time 2.45 (6 h)
  amount of xylene cyanol released: 1.2295 mcg/cm2 and 1.3179 mcg/cm2 and 0.8863 mcg/cm2 and 0.9032 mcg/cm2
0.5% Xylene Cyanol in Petrolatum, infinite dose, biphasic receptor fluid: 1-Octanol:PBS Buffer pH 7.4 1:1 v:v, square root of time 2.83 (8 h)
  amount of xylene cyanol released: 1.3579 mcg/cm2 and 1.8147 mcg/cm2 and 1.4400 mcg/cm2 and 1.5937 mcg/cm2
0.5% Xylene Cyanol in Petrolatum, infinite dose, biphasic receptor fluid: 1-Octanol:PBS Buffer pH 7.4 1:1 v:v, square root of time 3.16 (10 h)
  amount of xylene cyanol released: 1.8884 mcg/cm2 and 2.4316 mcg/cm2 and 1.7305 mcg/cm2 and 1.9768 mcg/cm2
0.5% Xylene Cyanol in Petrolatum, infinite dose, receptor fluid: 1-Octanol:H2O 1:1 v:v, N=4 runs
  Slope - Average: 2.2026 mcg/cm2/h^0.5
0.5% Xylene Cyanol in Petrolatum, infinite dose, receptor fluid: 1-Octanol:PBS Buffer pH 7.4 1:1 v:v
  Slope - Average: 1.0412 mcg/cm2/h^0.5
0.5% Xylene Cyanol in Petrolatum, infinite dose, receptor fluid: 1-Octanol, square root of time (hr) 0.00 (0 h, prior to dosing)
  amount of xylene cyanol released: BDL
0.5% Xylene Cyanol in Petrolatum, infinite dose, receptor fluid: 1-Octanol, square root of time (hr) 1.41 (2 h)
  amount of xylene cyanol released: BDL
0.5% Xylene Cyanol in Petrolatum, infinite dose, receptor fluid: 1-Octanol, square root of time (hr) 2.00 (4 h)
  amount of xylene cyanol released: BDL
0.5% Xylene Cyanol in Petrolatum, infinite dose, receptor fluid: 1-Octanol, square root of time (hr) 2.45 (6 h)
  amount of xylene cyanol released: BDL
0.5% Xylene Cyanol in Petrolatum, infinite dose, receptor fluid: 1-Octanol, square root of time (hr) 2.83 (8 h)
  amount of xylene cyanol released: BDL
0.5% Xylene Cyanol in Petrolatum, infinite dose, receptor fluid: 1-Octanol, square root of time (hr) 3.16 (10 h)
  amount of xylene cyanol released: BDL
0.5% Xylene Cyanol in Petrolatum, infinite dose, receptor fluid: 1-octanol:ethanol 50:50 v:v, square root of time (hr) 0.00 (0 h, prior to dosing)
  amount of xylene cyanol released: BDL
0.5% Xylene Cyanol in Petrolatum, infinite dose, receptor fluid: 1-octanol:ethanol 50:50 v:v, square root of time (hr) 1.41 (2 h)
  amount of xylene cyanol released: BDL
0.5% Xylene Cyanol in Petrolatum, infinite dose, receptor fluid: 1-octanol:ethanol 50:50 v:v, square root of time (hr) 2.00 (4 h)
  amount of xylene cyanol released: BDL
0.5% Xylene Cyanol in Petrolatum, infinite dose, receptor fluid: 1-octanol:ethanol 50:50 v:v, square root of time (hr) 2.45 (6 h)
  amount of xylene cyanol released: BDL
0.5% Xylene Cyanol in Petrolatum, infinite dose, receptor fluid: 1-octanol:ethanol 50:50 v:v, square root of time (hr) 2.83 (8 h)
  amount of xylene cyanol released: BDL
0.5% Xylene Cyanol in Petrolatum, infinite dose, receptor fluid: 1-octanol:ethanol 50:50 v:v, square root of time (hr) 3.16 (10 h)
  amount of xylene cyanol released: BDL
0.5% Xylene Cyanol in Petrolatum, infinite dose, receptor fluid: Isopropyl alcohol:water 50:50 v:v, square root of time (hr) 0.00 (0 h, prior to dosing)
  amount of xylene cyanol released: BDL
0.5% Xylene Cyanol in Petrolatum, infinite dose, receptor fluid: Isopropyl alcohol:water 50:50 v:v, square root of time (hr) 1.41 (2 h)
  amount of xylene cyanol released: BDL
0.5% Xylene Cyanol in Petrolatum, infinite dose, receptor fluid: Isopropyl alcohol:water 50:50 v:v, square root of time (hr) 2.00 (4 h)
  amount of xylene cyanol released: BDL
0.5% Xylene Cyanol in Petrolatum, infinite dose, receptor fluid: Isopropyl alcohol:water 50:50 v:v, square root of time (hr) 2.45 (6 h)
  amount of xylene cyanol released: BDL
0.5% Xylene Cyanol in Petrolatum, infinite dose, receptor fluid: Isopropyl alcohol:water 50:50 v:v, square root of time (hr) 2.83 (8 h)
  amount of xylene cyanol released: BDL
0.5% Xylene Cyanol in Petrolatum, infinite dose, receptor fluid: Isopropyl alcohol:water 50:50 v:v, square root of time (hr) 3.16 (10 h)
  amount of xylene cyanol released: BDL
0.5% Xylene Cyanol in Petrolatum, infinite dose, receptor fluid: dimethyl sulfoxide:ethanol 50:50 v:v, square root of time (hr) 0.00 (0 h, prior to dosing)
  amount of xylene cyanol released: BDL
0.5% Xylene Cyanol in Petrolatum, infinite dose, receptor fluid: dimethyl sulfoxide:ethanol 50:50 v:v, square root of time (hr) 1.41 (2 h)
  amount of xylene cyanol released: BDL
0.5% Xylene Cyanol in Petrolatum, infinite dose, receptor fluid: dimethyl sulfoxide:ethanol 50:50 v:v, square root of time (hr) 2.00 (4 h)
  amount of xylene cyanol released: BDL
0.5% Xylene Cyanol in Petrolatum, infinite dose, receptor fluid: dimethyl sulfoxide:ethanol 50:50 v:v, square root of time (hr) 2.45 (6 h)
  amount of xylene cyanol released: BDL
0.5% Xylene Cyanol in Petrolatum, infinite dose, receptor fluid: dimethyl sulfoxide:ethanol 50:50 v:v, square root of time (hr) 2.83 (8 h)
  amount of xylene cyanol released: BDL
0.5% Xylene Cyanol in Petrolatum, infinite dose, receptor fluid: dimethyl sulfoxide:ethanol 50:50 v:v, square root of time (hr) 3.16 (10 h)
  amount of xylene cyanol released: BDL
0.5% Xylene Cyanol in Petrolatum, infinite dose, receptor fluid: dimethyl sulfoxide:isopropyl alcohol:water 30:30:40 v:v:v, square root of time (hr) 0.00 (0 h, prior to dosing)
  amount of xylene cyanol released: BDL
0.5% Xylene Cyanol in Petrolatum, infinite dose, receptor fluid: dimethyl sulfoxide:isopropyl alcohol:water 30:30:40 v:v:v, square root of time (hr) 1.41 (2 h)
  amount of xylene cyanol released: BDL
0.5% Xylene Cyanol in Petrolatum, infinite dose, receptor fluid: dimethyl sulfoxide:isopropyl alcohol:water 30:30:40 v:v:v, square root of time (hr) 2.00 (4 h)
  amount of xylene cyanol released: BDL
0.5% Xylene Cyanol in Petrolatum, infinite dose, receptor fluid: dimethyl sulfoxide:isopropyl alcohol:water 30:30:40 v:v:v, square root of time (hr) 2.45 (6 h)
  amount of xylene cyanol released: BDL
0.5% Xylene Cyanol in Petrolatum, infinite dose, receptor fluid: dimethyl sulfoxide:isopropyl alcohol:water 30:30:40 v:v:v, square root of time (hr) 2.83 (8 h)
  amount of xylene cyanol released: BDL
0.5% Xylene Cyanol in Petrolatum, infinite dose, receptor fluid: dimethyl sulfoxide:isopropyl alcohol:water 30:30:40 v:v:v, square root of time (hr) 3.16 (10 h)
  amount of xylene cyanol released: BDL
0.5% Xylene Cyanol in Petrolatum, infinite dose, receptor fluid: isopropyl alcohol, square root of time (hr) 0.00 (0 h, prior to dosing)
  amount of xylene cyanol released: BDL
0.5% Xylene Cyanol in Petrolatum, infinite dose, receptor fluid: isopropyl alcohol, square root of time (hr) 1.41 (2 h)
  amount of xylene cyanol released: BDL
0.5% Xylene Cyanol in Petrolatum, infinite dose, receptor fluid: isopropyl alcohol, square root of time (hr) 2.00 (4 h)
  amount of xylene cyanol released: BDL
0.5% Xylene Cyanol in Petrolatum, infinite dose, receptor fluid: isopropyl alcohol, square root of time (hr) 2.45 (6 h)
  amount of xylene cyanol released: BDL
0.5% Xylene Cyanol in Petrolatum, infinite dose, receptor fluid: isopropyl alcohol, square root of time (hr) 2.83 (8 h)
  amount of xylene cyanol released: BDL
0.5% Xylene Cyanol in Petrolatum, infinite dose, receptor fluid: isopropyl alcohol, square root of time (hr) 3.16 (10 h)
  amount of xylene cyanol released: BDL
0.5% Xylene Cyanol in Petrolatum, infinite dose, receptor fluid: water, amount released vs square root of time
  Slope (release rate): BDL
0.5% Xylene Cyanol in Petrolatum, infinite dose, receptor fluid: water, square root of time (hr) 0.00 (0 h, prior to dosing)
  amount of xylene cyanol released: BDL
0.5% Xylene Cyanol in Petrolatum, infinite dose, receptor fluid: water, square root of time (hr) 1.41 (2 h)
  amount of xylene cyanol released: BDL
0.5% Xylene Cyanol in Petrolatum, infinite dose, receptor fluid: water, square root of time (hr) 2.00 (4 h)
  amount of xylene cyanol released: BDL
0.5% Xylene Cyanol in Petrolatum, infinite dose, receptor fluid: water, square root of time (hr) 2.45 (6 h)
  amount of xylene cyanol released: BDL
0.5% Xylene Cyanol in Petrolatum, infinite dose, receptor fluid: water, square root of time (hr) 2.83 (8 h)
  amount of xylene cyanol released: BDL
0.5% Xylene Cyanol in Petrolatum, infinite dose, receptor fluid: water, square root of time (hr) 3.16 (10 h)
  amount of xylene cyanol released: BDL
Biphasic receptor fluid 1-butanol:1-octanol:water 20:30:50 v:v:v
  amount of xylene cyanol released into the water phase: high amount
Biphasic receptor fluid 1-hexanol:1-octanol:water 25:25:50 v:v:v
  amount of xylene cyanol released into the water phase: high amount
Biphasic receptor fluid 1-hexanol:water 50:50 v:v
  amount of xylene cyanol released into the water phase: high amount
Biphasic receptor fluid 1-octanol:PEG 400:water 40:20:40 v:v:v
  amount of xylene cyanol released into the water phase: higher amount
Biphasic receptor fluid 1-octanol:ethanol:water 40:20:40 v:v:v
  amount of xylene cyanol released into the water phase: higher amount
Biphasic receptor fluid 1-octanol:glycerin:water 40:20:40 v:v:v
  amount of xylene cyanol released into the water phase: higher amount
Biphasic receptor fluid 1-octanol:isopropanol:water 40:20:40 v:v:v
  amount of xylene cyanol released into the water phase: higher amount
Biphasic receptor fluid 1-octanol:propylene glycol:water 40:20:40 v:v:v
  amount of xylene cyanol released into the water phase: higher amount
one-phase receptor fluid: 1-octanol
  release of Xylene Cyanol into the receptor fluid: no release
one-phase receptor fluid: 1-octanol:ethanol 50:50 v:v
  release of Xylene Cyanol into the receptor fluid: no release
one-phase receptor fluid: dimethyl sulfoxide:ethanol 50:50 v:v
  release of Xylene Cyanol into the receptor fluid: no release
one-phase receptor fluid: dimethyl sulfoxide:isopropyl alcohol:water 30:30:40 v:v:v
  release of Xylene Cyanol into the receptor fluid: no release
one-phase receptor fluid: isopropyl alcohol
  release of Xylene Cyanol into the receptor fluid: no release
one-phase receptor fluid: isopropyl alcohol:water 50 to 50 in volume
  release of Xylene Cyanol into the receptor fluid: no release
one-phase receptor fluid: water
  release of Xylene Cyanol into the receptor fluid: no release
